This is an account of results in article PMC3876124, “Identification and Biochemical Characterization of Protein Phosphatase 5 from the Cantharidin-Producing Blister Beetle, Epicauta chinensis” (International Journal of Molecular Sciences, 2013).

Like-named read-outs stand apart in the source and are kept apart here.

The assay concerns the target T1, Protein phosphatase 5 (EcPP5, rEcPP5) (Epicauta chinensis, UniProt W0FW71).
T1 construct: recombinant full ORF (499 aa), N-terminal His6 tag, E. coli expressed
T1 sequence (W0FW71 1-499): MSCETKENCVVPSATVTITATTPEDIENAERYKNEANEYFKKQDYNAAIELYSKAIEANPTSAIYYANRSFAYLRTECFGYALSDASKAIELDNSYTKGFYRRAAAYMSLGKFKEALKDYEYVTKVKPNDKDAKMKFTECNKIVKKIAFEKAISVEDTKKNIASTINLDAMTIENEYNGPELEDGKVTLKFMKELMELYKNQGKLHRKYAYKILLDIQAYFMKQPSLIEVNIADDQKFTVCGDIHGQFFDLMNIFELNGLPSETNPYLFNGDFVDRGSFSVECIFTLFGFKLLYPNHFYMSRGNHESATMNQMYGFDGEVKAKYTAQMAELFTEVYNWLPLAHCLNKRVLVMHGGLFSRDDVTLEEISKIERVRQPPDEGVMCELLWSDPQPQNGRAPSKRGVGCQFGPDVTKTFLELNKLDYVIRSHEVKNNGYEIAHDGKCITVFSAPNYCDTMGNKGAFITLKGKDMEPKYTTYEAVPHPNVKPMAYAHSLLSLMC
Briefly: pNPP phosphatase assay, dose-response, purified enzyme. In kind it is biochemical.

As to `O=C1OC(=O)[C@H]2[C@@H]1[C@@H]1CC[C@H]2O1` [norcantharidin], the IC50 (read-out: IC50) turned out to be 25.7 µM.

`C[C@@]12C(=O)OC(=O)[C@]1(C)[C@H]1CC[C@@H]2O1` [cantharidin] gave an IC50 of 3.19 µM.

As for `O=C(O)[C@@H]1[C@H](C(=O)O)[C@H]2CC[C@@H]1O2` [endothall], the IC50 came to 28.4 µM.

Regarding `C=C1[C@@H](O)[C@@H]2O[C@]3(CC[C@H](/C=C/[C@@H](C)[C@@H]4CC(C)=C[C@@]5(O[C@H](C[C@@](C)(O)C(=O)O)CC[C@H]5O)O4)O3)CC[C@H]2O[C@@H]1[C@@H](O)C[C@H](C)[C@H]1O[C@@]2(CCCCO2)CC[C@H]1C` [okadaic acid], the IC50 was determined as 0.19 µM.
